Type in all cases: cell-based, mouse
The subject of test [1] is allogeneic T cells co-cultured with BM-DCs. Nature of the test: Functional maturation of BM-DCs: allogeneic T cell proliferation in mixed lymphocyte reaction (3H-thymidine). As to conditions: BM-DCs from C57/BL6 mice exposed 48 h; peptide 200 μg/ml, HMGB1-Bx 50 μg/ml; DC:T cell ratio 1:120, 5 days; FIG. 4A. The procedure: Immature BM-DCs that were generated from C57/BL6 mice (FIG. 4A) or Balb/c mice (FIG. 4B) were incubated for 48 h with either HMGB1-Bx (50 μg/ml), a particular HMGB1 peptide (200 μg/ml), LPS (100 ng/ml) or were left untreated (medium). T cells were isolated by negative selection using the mouse SpinSep antibody cocktail from StemCell Technologies (Vancouver, Calif.), according to the manufacturer's instructions. The cell purity of the isolated T cells was routinely ˜99% pure. In order to assess levels of T cell activation and proliferation, cells were plated at 10^5 cells per well in a round-bottomed 96-well tray at a DC:T cell ratio of 1:120 for 5 days in the medium described above. The microcultures were pulsed with (^3H)-thymidine ([…]) for the final 8 h of culture. Cell cultures were harvested onto glass fiber filters with an automated multiple sample harvester and the amount of isotope incorporation was determined by liquid scintillation β-emission. Responses are reported as mean cpm of thymidine incorporation by triplicate cultures (±SEM).

Test [2] deals with immature BM-DCs. Put plainly: Phenotypic maturation of murine BM-DCs: surface maturation markers by FACS. The following applies: CD11c+ gated, mean fluorescence intensity, peptide 200 μg/ml, HMGB1-Bx 50 μg/ml; for CD86 expression on the surface of BM-DCs: FIG. 3A; for MHC-II expression on the surface of BM-DCs: FIG. 3B; for CD40 expression on the surface of BM-DCs: FIG. 3C. The procedure:
In order to determine whether HMGB1-Bx and/or particular HMGB1 peptides could induce phenotypic maturation of murine DCs, immature BM-DCs were exposed to either HMGB1-Bx, a particular HMGB1 peptide, or LPS (FIG. 3). Fluorescence activated cell sorting (FACS) analysis was performed on immature DCs that were cultured in the presence of either HMGB1-Bx (50 μg/ml), an HMGB1 peptide (200 μg/ml), or LPS (100 ng/ml). Untreated DCs (medium) were also tested as a control. DCs were gated on CD11c^+ cells and analyzed for expression of specific maturation markers (e.g., CD86, MHC-II, CD40) by surface membrane immunofluorescence. In particular, 1×10^4 DCs were reacted for at least 20 min at 4° C. in […] of PBS/5% FCS/0.1% sodium azide (staining buffer) with fluorescein isothiocyanate (FITC)-conjugated IgG monoclonal antibodies (mAbs) that are specific for CD86, CD40 or MHC-II (eBioscience). Cells were then washed 4 times with staining buffer, fixed in 10% formaldehyde in PBS (pH 7.2-7.4) and examined by flow cytometry using a FACScan (BD Biosciences). In all experiments, isotype controls were included using a FITC-conjugated irrelevant mAb of the same Ig class. Results are depicted as mean fluorescence intensity (MFI).
Background: Flow cytometry measures light scatter and fluorescence of single cells or particles in a stream.

The test system of test [3] is murine bone marrow-derived dendritic cells (BM-DCs). Nature of the test: Cytokine/chemokine secretion by murine bone marrow-derived dendritic cells (ELISA). The following applies: for IL-1β secretion / IL-2 secretion / IL-5 secretion / IL-6 secretion / IL-8 secretion / IL-10 secretion / IL-12 secretion / IL-18 secretion / TNFα secretion: MURINE DC, ELISA 48 h after exposure, relative to untreated cells; for IL-1β secretion / IL-2 secretion / IL-5 secretion / IL-6 secretion / IL-8 secretion / IL-10 secretion / IL-12 secretion / IL-18 secretion / TNFα secretion / secretion of IL-1β / secretion of IL-2 / secretion of IL-8 / secretion of IL-5 / secretion of IL-18 / secretion of TNF-α / secretion of IL-12 (p70): peptides 200 μg/ml, HMGB1-Bx 50 μg/ml; for cytokine secretion by murine BM-DCs / secretion of IL-1β / secretion of IL-2 / secretion of IL-8 / secretion of IL-5 / secretion of IL-18 / secretion of TNF-α / secretion of IL-12 (p70): murine BM-DCs; for secretion of IL-1β: FIG. 2A; for secretion of IL-1β / secretion of IL-2 / secretion of IL-8 / secretion of IL-5 / secretion of IL-18 / secretion of TNF-α / secretion of IL-12 (p70): 48 h; for secretion of IL-2: FIG. 2C; for secretion of IL-8: FIG. 2D; for secretion of IL-5: FIG. 2E; for secretion of IL-18: FIG. 2F; for secretion of TNF-α: FIG. 2G; for secretion of IL-12 (p70): FIGS. 2B, 2H. Further details: key to TNFα secretion / IL-18 secretion / IL-8 secretion / IL-10 secretion / IL-2 secretion / IL-1β secretion / IL-5 secretion / IL-6 secretion / IL-12 secretion: “+” indicates an increase; “−” indicates no change relative to untreated cells (medium). The procedure: Bone marrow-derived DCs (BM-DCs) were generated using modifications of the original method described by Inaba, et al. (J. Exp. Med. 1 76:1693-1702 (1992)). In brief, bone marrow suspensions were incubated with red cell lysis buffer (PUREGENE™ RBC Lysis Solution, Gentra Systems, Minneapolis, Minn.) to remove red blood cells. After washing in media, lymphocytes and Ia-positive cells were killed with a cocktail of monoclonal antibodies (mAbs) and rabbit complement for 60 min at 37° C. The mAbs that were used were GK1.5 anti-CD4, TIB211 anti-CD8, TIB 120 anti-Ia, and TIB 146 anti B220 (these mAbs were kindly provided by Dr. Ralph Steinman). The cells were subsequently cultured in media containing 5% FCS and 10 ng/ml recombinant mouse GM-CSF (R&D Systems, Minneapolis, Minn.) for 7 days. For some experiments, the cells were further purified at day 7 using CD11c^+-microbeads (Miltenyi Biotech., Auburn, Calif.), according to the manufacturer's instructions.
Recombinant HMGB1-B box domain (HMGB1-Bx) was expressed in Escherichia coli and purified as described by Li, et al. (Mol. Med. 9:37-45; J. Immunol. Methods 289:211-223 (2004)). Purified HMGB1-Bx contained trace amounts of LPS (19 pg LPS/μg HMGB1-Bx) as measured by the chromogenic Limulus amebocyte lysate assay (BioWhittacker Inc, Walkersville, Md.). All experiments using HMGB1-Bx, as well as the HMGB1 peptides, were performed in the presence of polymyxin B (200 U/ml) to neutralize the amount of contaminating LPS in the HMGB1-Bx and peptide preparations. We have previously shown that the DC stimulatory capacity of HMGB1-Bx requires an intact tertiary structure and is not due to contaminating amounts of LPS, as trypsinization abolished HMGB1-Bx activity (Messmer, et al., J. Immunol. 173: 307-313 (2004); the entire teachings of which are incorporated herein by reference).
Secreted cytokine/chemokine levels were measured by ELISA (Pierce Boston Technology Center, SearchLight™ Proteome Arrays Multiplex Sample Testing Services, Woburn, Mass.) 48 h after addition of the various peptides. Polymyxin B (200 U/ml) was added to all cultures, except those containing LPS, before the stimuli were added. Immature monocyte-derived human dendritic cells (DCs) and immature bone-marrow derived murine dendritic cells (BM-DCs) were cultured either in the presence of HMGB1 peptides (200 μg/ml), whose sequences map to different regions of the HMGB1 protein (see Table 1), the entire HMGB1 B-box domain (HMGB1-Bx) (50 μg/ml), or LPS (100 ng/ml). Untreated cells (medium) were tested as a control. Each peptide was named according to the corresponding position of its first amino acid within the full-length HMGB1 sequence. All peptides were N-terminally biotinylated except “Hp-106 (non bio)”.
For orientation: In an ELISA, binding on a coated surface is turned into a signal by an enzyme label.

Entries after “also recorded” stand apart in the source; their conditions may differ. Where no end group is shown, it is not given here. The star is where a group is joined. Biotin = O=C1N[C@H]2[C@H](CS[C@H]2CCCCC(=O)*)N1

Turning to YAFFVQTCREEHIKKHPD [Hp-16], in test [1], the “proliferation of resting allogeneic T cells (3H thymidine incorporation)” value is “activated proliferation”. Besides, in test [2], the “CD86 expression on the surface of BM-DCs” value is “strong upregulation”, the “MHC-II expression on the surface of BM-DCs” value is on record as “strong upregulation” and the “CD40 expression on the surface of BM-DCs” value is given as “strong upregulation”. Further, in test [3], the IL-1β secretion result is “+”, the IL-2 secretion entry was “+”, the IL-5 secretion entry is listed as “+” and the IL-6 secretion result was “−”. In addition, in test [3], the IL-8 secretion result is listed as “−”, the IL-10 secretion result is given as “−”, the IL-12 secretion result is reported as “+” and the IL-18 secretion result is reported as “+”. Moreover, in test [3], the TNFα secretion result is recorded as “−”, the “cytokine secretion by murine BM-DCs” value is “enhanced cytokine secretion; also recorded: stimulated cytokine secretion”, the “secretion of IL-1β” value is on record as “enhanced secretion” and the “secretion of IL-2” value was “enhanced secretion”. Also, in test [3], the “secretion of IL-8” value is “only Hp-106 enhanced secretion”, the “secretion of IL-5” value was “enhanced secretion”, the “secretion of IL-18” value was “enhanced secretion” and the “secretion of TNF-α” value is on record as “only Hp-106 enhanced secretion”. The “secretion of IL-12 (p70)” value in test [3] is “enhanced secretion”.
As for “CSEYRPKIKGEHPGLSIG [Hp-106] (Biotin-CSEYRPKIKGEHPGLSIG; listed as Homo sapiens)”, in test [1], the “proliferation of resting allogeneic T cells (3H thymidine incorporation)” value is “activated proliferation”. Also, in test [2], the “CD86 expression on the surface of BM-DCs” value is listed as “did not significantly enhance”, the “MHC-II expression on the surface of BM-DCs” value is given as “did not significantly enhance” and the “CD40 expression on the surface of BM-DCs” value is listed as “did not significantly enhance”. Further, in test [3], the IL-1β secretion entry is given as “+”, the IL-2 secretion entry is “+”, the IL-5 secretion result is “+” and the IL-6 secretion entry is “−”. Also, in test [3], the IL-8 secretion result is “+”, the IL-10 secretion result is “−”, the IL-12 secretion entry is on record as “+” and the IL-18 secretion entry was “+”. In addition, in test [3], the TNFα secretion result was “+”, the “cytokine secretion by murine BM-DCs” value is given as “induced cytokine secretion by murine BM-DCs; also recorded: high levels of cytokine secretion”, the “secretion of IL-1β” value is on record as “enhanced secretion” and the “secretion of IL-2” value is listed as “enhanced secretion”. Besides, in test [3], the “secretion of IL-8” value is on record as “enhanced secretion”, the “secretion of IL-5” value was “enhanced secretion”, the “secretion of IL-18” value is given as “enhanced secretion” and the “secretion of TNF-α” value was “enhanced secretion”. Besides, the “secretion of IL-12 (p70)” value in test [3] is reported as “enhanced secretion”.
